The record followed here is publication PMC4406878 (Pharmaceutical research, 2011).

The subject of this assay is PSMA. Particulars: 2 nM DHT, 48 h, 5% charcoal-stripped FBS RPMI-1640, Western blot. In general terms: Immunoblotting shows a protein as a band on a membrane.

As for `C[C@]12CCC(=O)C[C@@H]1CC[C@@H]1[C@@H]2CC[C@]2(C)[C@@H](O)CC[C@@H]12` [DHT, 5-α-dihydrotestosterone], the “PSMA expression in LNCaP cells” value is “substantially inhibited”.
